# US20250034185A1 (priority 2021, published 2025)
# Entries after “also recorded” stand apart in the source; their conditions may differ.
# Assays:
# [1] = Pharmacokinetic study 4: SP isomer, RP isomer and D-amino acid prodrug, IV and PO, rats; format: in vivo; settings: rat; for conversion to PLP in the plasma: IV (and PO)
# Text: The goal of the study was to compare the pharmacokinetic (PK) profiles of the S-isomer (16i) and the R-isomer (16iii) at the phosphorus center, and to assess the effect of using the D-amino acid (16i with SP and RP isomers) on PK profile.
# In order to isolate the effects of the administered agents on PL and PLP levels, the basal levels of both PL and PLP subtracted from the measured concentrations. Baseline subtraction was accomplished by subtracting pre-dose concentrations of either PL or PLP from the subsequent values in the time course.
# Formulation—Prodrugs 16i (SP isomer), 16i (RP isomer) and 16i′ (16i with D-amino acid racemate) were formulated in phosphate buffered saline (PBS) as a homogenous solution on the day of dosing.
# (§1) Animals and group—19 CD ♂ rats with an approx. weigh of ˜250 g were used. Animals were split into 6 groups+1 extra (n=3 for each group). Animals were allowed a 5-day acclimatization period in animal facility. The animal room environment was controlled (temperature 22 f 0.2° C.; relative humidity 55 f 25%; 12 hours light/dark cycle, and 12 air changes per hour). A standard certified commercial rodent chow was provided to the animals ad libitum. Procedures involving the care and use of animals in this study were reviewed and approved by the Institutional Animal Care and Use Committee (IACUC) prior to conduct. One day prior to dosing on D-1, Rats were divided in 6 groups (Table 1). Animals were identified and bled for pre-dose blood. Rats in Group 4, 5 and 6 were fasted overnight (12-14 hours) with access of water.
# On day 0, animals were weighted, and dosed by IV injection or by oral gavage as described in Table 10. Food tray were returned to Group 4, 5 and 6 two hours post dosing.
# (§2) Blood was collected at indicated time points below for all groups: Pre-dose, 5′, 15′, 30′, 1 h, 2 h, 4 h, 6 h, 8 h, 24 h.
# (§3) About 150 μL of blood was collected at indicated time points below using K2EDTA tubes. Blood was kept on ice until centrifugation at 4° C. at 6000 RCF for 10 min. Plasma was collected and kept on dry ice until transferred at −80° C.
# [2] = Single ascending dose study of P5P analog 16, oral, rats; format: in vivo; settings: rat; for adverse reactions / clinical signs: single PO dose 10, 30, 100, 300 mg/kg, observed to 24 hrs
# Protocol: Single ascending dose studies were carried out (Example 97: P5P analog 16i: single ascending dose study) to assess the maximum tolerability of a P5P analog (compound of formula 16i) in rats under 4 different doses under one single administration via Per Os (P.O.—oral) route, and to inform the linearity of pharmacokinetics (PK) with multiple dosing.
# (§4) In order to isolate the effects of the administered compound of formula 16i on pyridoxine (PL) and P5P (PLP) levels, the basal levels of both PL and P5P were subtracted from the measured concentrations. Baseline subtraction was accomplished by subtracting pre-dose concentrations of either PL or P5P from the subsequent values in the time course.
# Formulation—P5P analog 16 was formulated in 1% methylcellulose in water on the day of dosing.
# as §1, with “group—17” for “group—19”, “4” for “6”, “(n=4” for “(n=3”, “6).” for “1).”, “all groups” for “Group 4, 5 and 6”
# On day 0, animals in groups 1-2-3 were weighed, and dosed by oral gavage as described in Table 6. Each remaining dosing solutions were stirred (or slightly vortexed), a 50 ul sample were collected and placed in separate tube and both vials immediately frozen on dry ice. Food tray were returned to animals two hours post dosing.
# Cage-side observation were done upon dosing, at the end of day, and 24 hrs post dosing (record adverse effect if observed). Animal were weighed again at 24 hrs post dosing.
# Blood was collected at indicated time points for all groups at: Pre-dose, 15′, 30′, 1 h, 2 h, 4 h, 6 h, 8 h, 24 h.
# as §3
# [3] = Pharmacokinetic study 1: P5P and P5P analog 16, IV and PO, rats; format: in vivo; settings: rat
# Protocol: Pharmacokinetic study 1 was carried out (see Example 98: P5P analog 16i: Pharmacokinetic study 1) to assess if P5P analog 16i was able to be converted to P5P and increase plasma P5P, to assess if P5P analog 16i was orally available, and to compare the ability of PO P5P analog 16i and PO P5P to increase plasma P5P.
# as §4, with “P5P analog” for “compound of formula”
# Formulation—Both P5P (pyridoxal-5-phosphate) and P5P analog 16 were formulated in phosphate buffered saline (PBS) as homogenous solutions on the day of dosing.
# (§5) Animals and group—13 CD ♂ rats with an approx. weigh of ˜250 g were used. Animals were split into 4 groups+1 extra (n=3 for each group). Animals were allowed a 5-day acclimatization period in animal facility. The animal room environment was controlled (temperature 22 f 0.2° C.; relative humidity 55 f 25%; 12 hours light/dark cycle, and 12 air changes per hour). A standard certified commercial rodent chow was provided to the animals ad libitum. Procedures involving the care and use of animals in this study were reviewed and approved by the Institutional Animal Care and Use Committee (IACUC) prior to conduct. One day prior to dosing on D-1, Rats were divided in 4 groups (Table 7). Rats in Group 3 and 4 were fasted overnight (12-14 hours) with access to water.
# On day 0, animals were identified, weighted, and dosed by intravenous (IV) injection or oral gavage (PO) as described in Table 7. Food tray were returned to Group 3 and 4, 2 hrs post dosing.
# as §2, §3
# plasma enzymes = settings: Sprague Dawley, rat
# [4] = Pharmacokinetic study 3: P5P analog 16vi and Compound II.I., IV and PO, rats; format: in vivo; settings: rat
# Protocol: […] (Example 100: P5P analog 16vi and compound II.I.: Pharmacokinetic study 3) to assess the effect of a P5P analog not encompassed by the compound of Formula I (Compound II.I.), amino acid modification (P5P analog 16vi) and compounds of formula 16iii, 16i and a racemic mixture of 16i.
# as §4, with “Compound II.I. and P5P analog 16vi” for “compound of formula 16i”, “P5P” for “P5P (PLP)”
# Formulation—Compound II.I. was formulated in 0.9% saline while P5P analog 16vi was formulated in 40% hydroxypropyl-β-cyclodextrin in water as a homogenous solution on the day of dosing.
# as §5, with “9).” for “7).”
# On day 0, animals were identified, weighted, and dosed by intravenous (IV) injection or oral gavage (PO) as described in Table 9. Food tray were returned to Group 3 and 4, 2 hrs post dosing.
# as §2
# About 150 μL of blood was collected at indicated time points below using K2EDTA tubes. Blood was kept on ice until centrifugation at 4° C. at 6000 RCF for 10 min. […]
# [5] = Pharmacokinetic study 2: P5P analogs 16 and 16v, IV and PO, rats; format: in vivo; settings: rat
# Protocol: Pharmacokinetic study 2 was carried out (Example 99: P5P analog 16i: Pharmacokinetic study 2) to assess the effect of the P5P analog 16v compared to P5P analog 16i.
# as §4, with “P5P analogs” for “compound of formula”, “16i and 16v” for “16i”, “P5P” for “P5P (PLP)”
# Formulation—Both P5P analog 16 and P5P analog 16v were formulated in 40% hydroxypropyl-β-cyclodextrin in water as homogenous solutions on the day of dosing.
# as §5, with “8).” for “7).”
# On day 0, animals were identified, weighted, and dosed by intravenous (IV) injection or oral gavage (PO) as described in Table 8. Food tray were returned to Group 3 and 4, 2 hrs post dosing.
# as §2, §3
smiles,measurement,setting,value
"Cc1ncc(COP(=O)(N[C@H](C)C(=O)OC(C)C)Oc2ccccc2)c(C=O)c1O (mixture of isomers) [Compound 16iii, (2R)-Isopropyl 2-(((4-formyl-5-hydroxy-6-methylpyridin-3-yl)methoxy)(phenoxy)phosphorylamino)propanoate]","PLP exposure, racemic D-amino acid prodrug compared with L-amino acid prodrug",[1],reduced PLP exposure
same,conversion to PLP in the plasma,[1],did not convert well to PLP
"Cc1ncc(COP(=O)(N[C@@H](C)C(=O)OC(C)C)Oc2ccccc2)c(C=O)c1O (mixture of isomers) [Compound 16, (2S)-Isopropyl 2-(((4-formyl-5-hydroxy-6-methylpyridin-3-yl)methoxy)(phenoxy)phosphorylamino)propanoate]",adverse reactions / clinical signs,[2],no adverse reactions
same,time after which the dosed compound is no longer left/detectable in the plasma,[3]; IV 1 mg/kg,6 h
same,ability to increase plasma PLP compared to PLP itself,"[3]; given PO, FIGS. 7 a-d",improved ability
same,prodrug (P5P analog) time of peak,[3]; oral 10 mg/kg,0.5 hours
"Cc1ncc(CO[P@@](=O)(N[C@@H](C)C(=O)OC(C)C)Oc2ccccc2)c(C=O)c1O [Compound 16i, (S)-Isopropyl 2-((S)-((4-formyl-5-hydroxy-6-methylpyridin-3-yl)methoxy)(phenoxy)phosphorylamino)propanoate]",T1/2 of PL and PLP as dose was increased,[2]; PO 10-300 mg/kg,increase
same,plasma PL and P5P concentrations with increasing dose,[2]; PO 10-300 mg/kg,clear dose-dependent increase
same,dose linearity of plasma PL and PLP (Cmax and AUC),[2]; PO,dose linearity up to 300 mg/kg
same,signs of toxicity,[2]; highest dose group 300 mg/kg PO,did not show any signs of toxicity
same,adverse reactions / clinical signs,[2],no clinical signs were observed
same,relative P5P formed,plasma enzymes,100.0%
same,conversion to PLP in the plasma,[1],readily converted to PLP
same,"oral availability of the prodrug (crosses gastrointestinal wall, detectable in circulation)",[3]; dosed orally,orally bioavailable
"Cc1ncc(COP(=O)(O)O)c(C=O)c1O [Compound P5P, pyridoxal-5-phosphate]",overall exposure of P5P,[3]; IV 1 mg/kg,approximately 2200 ng/ml*hr
same,time after which the dosed compound is no longer left/detectable in the plasma,[3]; IV 1 mg/kg,4 h
same,total exposure of pyridoxal (above baseline values),[3]; IV 1 mg/kg,770 ng/ml*hr
same,plasma P5P Cmax,"[3]; IV 1 mg/kg, PBS",3373 ng/mL
same,oral bioavailability of P5P,[3]; PO 10 mg/kg vs IV 1 mg/kg,0%
same,plasma pyridoxal Cmax,[3]; oral gavage 10 mg/kg,3668 ng/mL
same,P5P detected in the plasma over the 24-hour assessment period,"[3]; oral gavage 10 mg/kg, 10 mg/kg",no detectable P5P; also recorded: not detected
"Cc1ncc(COP(=O)(N[C@@H](Cc2ccccc2)C(=O)OC(C)C)Oc2ccccc2)c(C=O)c1O (stereo partly drawn) [Compound 16vi, (2S)-Isopropyl 2-(((4-formyl-5-hydroxy-6-methylpyridin-3-yl)methoxy)(phenoxy)phosphorylamino)-3-phenylpropanoate]",oral bioavailability (detection in plasma after oral dosing),[4]; dosed orally,did not demonstrate significant oral bioavailability; also recorded: nor P5P were detected in the plasma at any significant levels
same,Cmax,"[4]; male, CD, plasma, po, orally 10 mg/kg, read-out: dosed compound Cmax in plasma",1650 ng/mL
same,dosed compound exposure,[4]; orally 10 mg/kg,1592 ng/ml*hr
"CCC(CC)COC(=O)[C@H](C)NP(=O)(OCc1cnc(C)c(O)c1C=O)Oc1ccccc1 (stereo partly drawn) [Compound 16v, (2S)-2-Ethylbutyl 2-(((4-formyl-5-hydroxy-6-methylpyridin-3-yl)methoxy)(phenoxy)phosphorylamino)propanoate]","oral availability of the prodrug (crosses gastrointestinal wall, detectable in circulation)",[5]; dosed orally,orally bioavailable
same,Tmax,"[5]; male, CD, plasma, IV 1 mg/kg, read-out: prodrug (P5P analog) time of Cmax",6 min
same,plasma levels of P5P after oral dosing compared to P5P analog 16i,[5]; oral dosing,slightly greater amounts
